In ChEMBL document CHEMBL3885861, “Open TG-GATES”:

Organism: Rattus norvegicus
Assay: Open TG-GATES - Regimen: Daily Repeat
Type: toxicity, organism-based, Sprague-Dawley
Design: regimen Daily Repeat, gender Male, age 6 weeks
Settings: in vivo, po, 1000 mg/kg, route gavage, dose level High; for APTT / Bas / Eos / Fbg / Hb / Ht / Lym / MCH / MCHC / MCV / Mono / Neu / PT / Plat / RBC / Ret / WBC: tissue Blood; for KIDNEY_L / KIDNEY_R / KIDNEY_TOTAL: tissue Kidney; for LIVER: tissue Liver; for A/G / ALP / ALT / AST / BUN / CRE / Ca / Cl / DBIL / GLC / IP / K / LDH / Na / PL / RALB / TBIL / TC / TG / TP / gamma-GTP: tissue Plasma

## O=C(N[C@H](CO)[C@H](O)c1ccc([N+](=O)[O-])cc1)C(Cl)Cl [CHLORAMPHENICOL]
72 h, time 3 day
  TERMINAL_BW: 243.9 g
  APTT: 17 s
  Bas: 0%
  Eos: 1.4%
  Fbg: 313.4 mg/dL
  Hb: 13.3 g/dL
  Ht: 40.7%
  Lym: 87.8%
  MCH: 21.1 pg
  MCHC: 32.7%
  MCV: 64.6 fL
  Mono: 3.2%
  Neu: 7%
  PT: 14.6 s
  Plat: 109.7 x10_4/uL
  RBC: 630.6 x10_4/ul
  Ret: 2.3%
  WBC: 63.9 x10_2/uL
  KIDNEY_L: 1.1 g
  KIDNEY_R: 1.1 g
  KIDNEY_TOTAL: 2.2 g
  LIVER: 13.2 g
  A/G: 0.9
  ALP: 1258.6 IU/L
  ALT: 41 IU/L
  AST: 75 IU/L
  BUN: 16.6 mg/dL
  CRE: 0.2 mg/dL
  Ca: 10.5 mg/dL
  Cl: 106.8 meq/L
  DBIL: 0.012 mg/dL
  GLC: 168.4 mg/dL
  IP: 6.2 mg/dL
  K: 4.3 meq/L
  LDH: 85.6 IU/L
  Na: 141.6 meq/L
  PL: 138.6 mg/dL
  RALB: 2.4 g/dL
  TBIL: 0.05 mg/dL
  TC: 72.6 mg/dL
  TG: 82.6 mg/dL
  TP: 5.2 g/dL
  gamma-GTP: 1 IU/L
[…], time 7 day
  TERMINAL_BW: 275.6 g
  APTT: 16.3 s
  Bas: 0%
  Eos: 1%
  Fbg: 339.2 mg/dL
  Hb: 13 g/dL
  Ht: 40%
  Lym: 84.4%
  MCH: 20.6 pg
  MCHC: 32.5%
  MCV: 63.3 fL
  Mono: 2.4%
  Neu: 11.4%
  PT: 14.8 s
  Plat: 126.1 x10_4/uL
  RBC: 631.6 x10_4/ul
  Ret: 4.9%
  WBC: 79.2 x10_2/uL
  KIDNEY_L: 1.2 g
  KIDNEY_R: 1.2 g
  KIDNEY_TOTAL: 2.4 g
  LIVER: 15.2 g
  A/G: 0.9
  ALP: 1416.6 IU/L
  ALT: 50.6 IU/L
  AST: 77.4 IU/L
  BUN: 15.8 mg/dL
  CRE: 0.2 mg/dL
  Ca: 11.2 mg/dL
  Cl: 105.4 meq/L
  DBIL: 0.012 mg/dL
  GLC: 179.4 mg/dL
  IP: 8.8 mg/dL
  K: 4.1 meq/L
  LDH: 92.8 IU/L
  Na: 143.6 meq/L
  PL: 136.2 mg/dL
  RALB: 2.7 g/dL
  TBIL: 0.052 mg/dL
  TC: 67.8 mg/dL
  TG: 71.8 mg/dL
  TP: 5.8 g/dL
  gamma-GTP: 1 IU/L
[…], time 14 day
  TERMINAL_BW: 327.3 g
  APTT: 15.6 s
  Bas: 0%
  Eos: 1%
  Fbg: 325.6 mg/dL
  Hb: 13.9 g/dL
  Ht: 42.9%
  Lym: 87.2%
  MCH: 20.6 pg
  MCHC: 32.3%
  MCV: 63.6 fL
  Mono: 2.8%
  Neu: 8.4%
  PT: 14.9 s
  Plat: 116.9 x10_4/uL
  RBC: 675.6 x10_4/ul
  Ret: 4.4%
  WBC: 86.3 x10_2/uL
  KIDNEY_L: 1.4 g
  KIDNEY_R: 1.3 g
  KIDNEY_TOTAL: 2.7 g
  LIVER: 18.1 g
  A/G: 0.9
  ALP: 1573.2 IU/L
  ALT: 50.6 IU/L
  AST: 72.6 IU/L
  BUN: 17.8 mg/dL
  CRE: 0.2 mg/dL
  Ca: 11 mg/dL
  Cl: 105.6 meq/L
  DBIL: 0.016 mg/dL
  GLC: 179.2 mg/dL
  IP: 7.2 mg/dL
  K: 4.1 meq/L
  LDH: 53.6 IU/L
  Na: 144 meq/L
  PL: 149.8 mg/dL
  RALB: 2.7 g/dL
  TBIL: 0.046 mg/dL
  TC: 71.4 mg/dL
  TG: 79.2 mg/dL
  TP: 5.7 g/dL
  gamma-GTP: 1 IU/L
[…], time 28 day
  TERMINAL_BW: 381.6 g
  APTT: 16.3 s
  Bas: 0%
  Eos: 1.2%
  Fbg: 303 mg/dL
  Hb: 14.6 g/dL
  Ht: 42.8%
  Lym: 87.4%
  MCH: 19.6 pg
  MCHC: 34.1%
  MCV: 57.3 fL
  Mono: 1.6%
  Neu: 9.2%
  PT: 15.5 s
  Plat: 106.7 x10_4/uL
  RBC: 746.4 x10_4/ul
  Ret: 1.7%
  WBC: 78.6 x10_2/uL
  KIDNEY_L: 1.6 g
  KIDNEY_R: 1.6 g
  KIDNEY_TOTAL: 3.2 g
  LIVER: 20.9 g
  A/G: 0.9
  ALP: 936.8 IU/L
  ALT: 43.6 IU/L
  AST: 72.8 IU/L
  BUN: 17 mg/dL
  CRE: 0.2 mg/dL
  Ca: 10.4 mg/dL
  Cl: 105.8 meq/L
  DBIL: 0.016 mg/dL
  GLC: 164.4 mg/dL
  IP: 6.3 mg/dL
  K: 3.6 meq/L
  LDH: 53.4 IU/L
  Na: 145.2 meq/L
  PL: 131.6 mg/dL
  RALB: 2.6 g/dL
  TBIL: 0.06 mg/dL
  TC: 57.8 mg/dL
  TG: 74.8 mg/dL
  TP: 5.6 g/dL
  gamma-GTP: 1 IU/L
